# Key:
# [1] = in vivo; cited from earlier work
# human PBMC = assay: TNFα ELISA on direct ex vivo human PBMC exposed to nBPs; assay type: cell-based; conditions: 10 μM risedronate or 100 μM pamidronate, 12 hours, FIG. 1B
# Procedure: γδ T cells were washed in RPMI and incubated overnight in R10 at 37° C. 96-well nitrocellulose plates (Millipore) were incubated overnight at 4° C. with 15 μg/ml antihuman-IFN-γ primary antibody (clone 1-D1K; Mabtech, Sweden). The plates were then washed twice with RPMI and blocked with R10 for 3 hours at 37° C. R10 was decanted by inversion and assays applied to each well before incubation at 37° C. as detailed below. Assays were terminated by washing once in water, followed by 5 washes in PBS. Secondary antibody (anti-human-IFN-γ-Biotin antibody clone 7-B6-1; Mabtech) was applied at 1 μg/ml and the plate incubated for 100 minutes at room temperature (RT). The plate was washed 6 times with PBS before application of Streptavidin-ALP (1:1000 in PBS; Mabtech) for 40 minutes at RT. […] A TNFα ELISA kit (Peprotech) was used in accordance with the manufacturers instructions.
# In FIG. 1 (B), nBPs are shown to stimulate TNFA production from direct ex vivo human PBMC. […] 60 μl aliquots were removed at the specified time and added to TNFα ELISA assays.
# [2] = test system: human PBMC depleted of γδ T cells; assay: TNFα ELISA on PBMC after magnetic depletion of γδ T cells; assay type: cell-based; conditions: 100 μM pamidronate, 10 μM risedronate; FIG. 2A, 2B
# Procedure: (§1) γδ T cells were washed in RPMI and incubated overnight in R10 at 37° C. 96-well nitrocellulose plates (Millipore) were incubated overnight at 4° C. with 15 μg/ml antihuman-IFN-γ primary antibody (clone 1-D1K; Mabtech, Sweden). The plates were then washed twice with RPMI and blocked with R10 for 3 hours at 37° C. R10 was decanted by inversion and assays applied to each well before incubation at 37° C. as detailed below. Assays were terminated by washing once in water, followed by 5 washes in PBS. Secondary antibody (anti-human-IFN-γ-Biotin antibody clone 7-B6-1; Mabtech) was applied at 1 μg/ml and the plate incubated for 100 minutes at room temperature (RT). The plate was washed 6 times with PBS before application of Streptavidin-ALP (1:1000 in PBS; Mabtech) for 40 minutes at RT. […]
# 10^8 human PBMC were incubated with 10 μg/ml of anti-human pan-γδ antibody for 30 minutes on ice. […] The success of depletion was determined by FACS analysis with the anti-CD3 and pan-γδ antibodies detailed above, and was >95% efficient in all cases shown.
# 5×10^6 PBMC from a healthy donor+/−magnetic depletion of γδ T cells were suspended in 1 ml of R10+/−antigen in 75×5 mm FACS tubes at 37° C. and 5% CO2 for the times shown. […] The percentage of cytokine positive cells (fluorescence intensity>20) is shown in the upper right corner of each panel.
# Vγ9JPVδ2 T cells = assay: IFNγ ELISpot with Vγ9JPVδ2 T cell clone Bob and spinner HeLa antigen presenting cells; assay type: cell-based, human; conditions: 1,000 Vγ9JPVδ2 T cells, 25,000 spinner HeLa cells per well, 6 hours; FIG. 1A
# Procedure: (§2) γδ T cells were isolated from human peripheral blood using a magnetic separation kit (TCR γ/δ Microbead Kit and MS columns from Miltenyi Biotech). Once isolated, cells were resuspended in T cell medium (RPMI supplemented with 100 U/ml penicillin, 100 μg/ml streptomycin, 10% FCS, 10% T-STIM (BD Biosciences), 200 U/ml Proleukin (Chiron)) containing 2×10^6 γ-irradiated PMBC/ml from three individuals and 2 μg/ml PHA. Cells were maintained with T cell medium, and restimulated with mixed irradiated PBMC and PHA every three weeks. For cloning, the same mix was used to grow cells by limiting dilution in 96-well U-boftomed plates. Cells that grew were confirmed to be γδ T cells with Vγ9 antibody.
# as §1, with “(RT).” for “(RT). The plate was washed 6 times with PBS before application of Streptavidin-ALP (1:1000 in PBS; Mabtech) for 40 minutes at RT.”
# Vγ9-expressing T cells = assay: Intracellular cytokine staining (ICS) of fresh PBMC exposed to nBPs; assay type: cell-based, human; conditions: for IL6 and TNFα production by Vγ9-expressing cells by ICS: 100 μM pamidronate, FIG. 2D
# Procedure: 10^6 fresh PBMC were incubated in FACS tubes with brefeldin A (10 μg/ml R10) for 5 hours after pulsing with relevant antigens for 1 hour. The cells were then washed, permeabilised in 20% FACSLyse (BD Biosciences), washed twice in ice cold PBS/0.1% BSA and stained on ice with pre-titred APC-conjugated anti-IFNγ, anti-TNFα and anti-IL-2 and PE-conjugated anti-Vγ9 mAbs for 20 minutes. For single cytokine analysis (FIG. 2D), cells were stained with PE-conjugated anti-IL6, APC-conjugated anti-TNFα and FITC-conjugated anti-Vγ9 antibodies. In each case, cells were then washed, resuspended in PBS & analysed immediately.
# 5×10^6 PBMC from a healthy donor+/−magnetic depletion of γδ T cells were suspended in 1 ml of R10+/−antigen in 75×5 mm FACS tubes at 37° C. and 5% CO2 for the times shown. 60 μl of cell supernatant was removed and applied to TNFα ELISA plates in duplicate and developed according to the manufacturers instructions. Standard deviation from the mean of the two replicate ELISAs is shown although, in most cases, this error is smaller than the plot symbol. In (C), exposure to nBPs activates PBMC that express a Vγ9 receptor and not other T cells or B cells. 10^6 fresh human PBMC were exposed to R10 (top panel) or R10+10 μM risedronate (bottom panel) for 6 hours in an intracellular cytokine staining (ICS) assay. Plots show all the cells in the lymphocyte gate stained for PE-Vγ9 and APC-cytokines (TNFα, IL2, and IFNγ). Exposure to risedronate induces cytokine production only in lymphocytes that express a Vγ9 TCR. The percentage of total lymphocytes in the Vγ9^+ cytokine^+ gate shown is indicated in the upper right of each panel. Almost 10% of the lymphocytes expressing a Vγ9 receptor are activated by exposure to nBPs. […] Plots are gated to show only Vγ9-expressing lymphocytes. […] The percentage of cytokine positive cells (fluorescence intensity>20) is shown in the upper right corner of each panel.
# circulating γδ T cells = conditions: cited from earlier work
# Vγ9JPVδ2 T cell clones = assay: TNFα ELISA on Vγ9JPVδ2 T cell clones activated by risedronate; assay type: cell-based, human; conditions: 10 μM risedronate, 10^6 T cells, clones P, M and Bob; FIG. 1C
# Procedure: as §2
# as §1, with “(RT).” for “(RT). The plate was washed 6 times with PBS before application of Streptavidin-ALP (1:1000 in PBS; Mabtech) for 40 minutes at RT.”
# γδ T cell = conditions: cited from earlier work
SMILES,acute phase response [1],TNFα production from direct ex vivo human PBMC (human PBMC),TNFα production by PBMC after magnetic depletion of γδ T cells [2],activation of clonal Vγ9JPVδ2 T cells by IFNγ ELISpot (Vγ9JPVδ2 T cells),IL6 and TNFα production by Vγ9-expressing cells by ICS (Vγ9-expressing T cells; 10 μM risedronate),also measured
"CC(O)(P(=O)(O)O)P(=O)(O)O [etidronate, disodium etidronate]",has not been observed,–,–,–,–,–
"NCCC(O)(P(=O)(O)O)P(=O)(O)O [pamidronate, disodium pamidronate]",–,large amounts of TNFα,removed the ability of PBMC to produce TNFα,activate,make both IL6 and TNFα,"number of circulating γδ T cells in patients with acute phase reaction (circulating γδ T cells; 1 and 3 weeks post-infusion): substantial increase; γδ T cells as % of CD3+ cells post-infusion (circulating γδ T cells; one patient, expanded from 4.6%): 70%"
O=P(O)(O)C(Sc1ccc(Cl)cc1)P(=O)(O)O [tiludronate],has not been observed,–,–,–,–,–
"O=P(O)(O)C(O)(Cc1cccnc1)P(=O)(O)O [risedronate, risedronate sodium]",–,large amounts of TNFα,removed the ability of PBMC to produce TNFα,activate,make both IL6 and TNFα,"activation (TNFα production) of Vγ9JPVδ2 T cell clones (Vγ9JPVδ2 T cell clones): extremely rapid; lymphocytes expressing a Vγ9 receptor activated (cytokine+ by ICS) (Vγ9-expressing T cells; 10 μM risedronate (100 μM pamidronate, data not shown), 6 hours, TNFα, IL2, IFNγ staining, FIG. 2C): ~10%; expression of the Vγ9 TCR (Vγ9-expressing T cells; 10 μM risedronate, 6 hours, ICS): lowers the expression of the Vγ9 TCR; concentration stimulating γδ T cell expansion from human PBMC (γδ T cell): ≥ 10 nM"
"O=P(O)(O)C(Cl)(Cl)P(=O)(O)O [clodronate, disodium clodronate]",has not been observed,–,–,–,–,–

# Reference: US20070105822A1, “Novel uses of known drugs” (priority 2003, published 2007)
